PMC3914206

Columns and labels:
Assay type in all cases: binding
[1] = biological target: T1, panel of 442 kinases (Homo sapiens, UniProt P10721, V559D); conditions: Compound Concentration 10 µM
T1 construct: purchased KINOMEscan
Source text: (§1) We assessed the selectivity of members of this scaffold using the KINOMEscan methodology across a near comprehensive panel of 442 kinases [[18,27]].

[2] = biological target: T2, panel of 442 kinases (Homo sapiens, UniProt Q13153); conditions: Compound Concentration 10 µM
T2 construct: purchased KINOMEscan
T2 sequence (Q13153 whole entry): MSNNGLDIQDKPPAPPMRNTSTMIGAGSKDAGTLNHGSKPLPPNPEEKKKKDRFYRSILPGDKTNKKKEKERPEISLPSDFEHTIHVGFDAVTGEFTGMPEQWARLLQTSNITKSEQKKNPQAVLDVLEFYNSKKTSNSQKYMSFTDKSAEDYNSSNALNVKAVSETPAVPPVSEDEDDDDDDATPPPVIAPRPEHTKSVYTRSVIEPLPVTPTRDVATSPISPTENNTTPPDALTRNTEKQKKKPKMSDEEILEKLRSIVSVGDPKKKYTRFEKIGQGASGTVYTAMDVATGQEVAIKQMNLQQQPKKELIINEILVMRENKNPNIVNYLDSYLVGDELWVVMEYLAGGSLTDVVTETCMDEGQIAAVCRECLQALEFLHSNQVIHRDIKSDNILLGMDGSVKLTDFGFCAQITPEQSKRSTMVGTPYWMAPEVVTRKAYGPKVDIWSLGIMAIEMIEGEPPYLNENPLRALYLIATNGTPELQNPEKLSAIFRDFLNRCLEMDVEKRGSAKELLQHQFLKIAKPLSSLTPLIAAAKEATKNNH
Source text: as §1

[3] = biological target: T3, panel of 442 kinases (Homo sapiens, UniProt P35590); conditions: kinase TIE1; compound concentration 10 µM
T3 construct: purchased KINOMEscan
T3 sequence (P35590 22-1138): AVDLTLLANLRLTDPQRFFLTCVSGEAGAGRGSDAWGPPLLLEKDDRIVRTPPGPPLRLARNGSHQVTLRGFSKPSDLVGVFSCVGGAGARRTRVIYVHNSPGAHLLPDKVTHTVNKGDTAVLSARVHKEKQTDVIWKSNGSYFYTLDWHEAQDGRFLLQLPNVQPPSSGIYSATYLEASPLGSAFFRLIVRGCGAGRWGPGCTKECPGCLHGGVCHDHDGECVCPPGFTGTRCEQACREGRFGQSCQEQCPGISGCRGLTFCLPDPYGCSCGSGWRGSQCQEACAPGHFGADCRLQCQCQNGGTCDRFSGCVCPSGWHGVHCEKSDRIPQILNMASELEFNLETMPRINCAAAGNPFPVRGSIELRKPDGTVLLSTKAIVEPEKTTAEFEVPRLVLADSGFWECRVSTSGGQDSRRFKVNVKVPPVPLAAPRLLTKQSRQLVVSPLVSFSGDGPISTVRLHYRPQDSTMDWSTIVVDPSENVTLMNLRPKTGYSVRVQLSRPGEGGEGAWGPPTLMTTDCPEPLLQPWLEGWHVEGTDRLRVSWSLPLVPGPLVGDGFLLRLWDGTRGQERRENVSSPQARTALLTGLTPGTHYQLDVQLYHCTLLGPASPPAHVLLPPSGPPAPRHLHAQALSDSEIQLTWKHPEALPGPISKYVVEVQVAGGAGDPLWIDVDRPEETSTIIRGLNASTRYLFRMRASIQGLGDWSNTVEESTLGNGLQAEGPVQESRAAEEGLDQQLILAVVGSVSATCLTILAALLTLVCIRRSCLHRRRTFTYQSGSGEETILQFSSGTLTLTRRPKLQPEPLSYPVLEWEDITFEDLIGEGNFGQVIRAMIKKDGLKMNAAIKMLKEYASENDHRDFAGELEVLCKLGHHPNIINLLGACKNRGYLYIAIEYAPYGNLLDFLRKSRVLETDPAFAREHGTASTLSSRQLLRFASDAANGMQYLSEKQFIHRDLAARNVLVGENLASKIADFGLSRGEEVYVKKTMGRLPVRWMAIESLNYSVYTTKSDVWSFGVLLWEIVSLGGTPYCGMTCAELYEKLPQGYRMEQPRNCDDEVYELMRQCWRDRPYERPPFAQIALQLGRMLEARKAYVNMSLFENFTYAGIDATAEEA
Source text: as §1

T1 sequence (P10721 26-976 V559D): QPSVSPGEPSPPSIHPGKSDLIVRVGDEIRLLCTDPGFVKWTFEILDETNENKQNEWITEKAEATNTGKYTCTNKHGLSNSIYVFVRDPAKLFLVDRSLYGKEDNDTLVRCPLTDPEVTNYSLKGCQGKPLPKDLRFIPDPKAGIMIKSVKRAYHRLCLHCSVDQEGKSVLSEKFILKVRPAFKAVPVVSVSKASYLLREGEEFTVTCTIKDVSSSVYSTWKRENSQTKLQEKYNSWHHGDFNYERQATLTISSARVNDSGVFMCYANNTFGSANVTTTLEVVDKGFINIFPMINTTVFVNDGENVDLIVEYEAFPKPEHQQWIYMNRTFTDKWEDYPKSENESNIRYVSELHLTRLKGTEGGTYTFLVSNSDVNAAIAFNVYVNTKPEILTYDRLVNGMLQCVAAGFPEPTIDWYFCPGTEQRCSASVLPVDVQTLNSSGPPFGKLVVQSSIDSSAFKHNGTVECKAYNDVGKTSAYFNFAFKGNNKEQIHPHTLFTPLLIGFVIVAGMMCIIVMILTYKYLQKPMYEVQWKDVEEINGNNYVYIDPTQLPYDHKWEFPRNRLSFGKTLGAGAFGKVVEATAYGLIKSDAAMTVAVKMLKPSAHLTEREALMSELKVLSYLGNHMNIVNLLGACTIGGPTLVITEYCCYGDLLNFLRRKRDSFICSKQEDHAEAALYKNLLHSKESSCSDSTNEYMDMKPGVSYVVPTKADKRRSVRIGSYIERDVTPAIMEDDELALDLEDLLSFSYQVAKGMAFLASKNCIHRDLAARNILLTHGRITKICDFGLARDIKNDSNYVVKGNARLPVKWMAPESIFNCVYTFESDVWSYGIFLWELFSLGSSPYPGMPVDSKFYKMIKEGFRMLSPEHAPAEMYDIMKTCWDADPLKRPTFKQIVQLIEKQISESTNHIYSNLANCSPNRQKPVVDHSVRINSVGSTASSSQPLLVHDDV

SMILES	KINOMEscan: KIT(V559D) [1]	KINOMEscan: PAK1 [2]	% Ctrl, TIE1 [3] [% Ctrl]
COc1cc(C(=O)N2CCC(N3CCN(C)CC3)CC2)ccc1Nc1ncc2c(n1)N(C)c1ccccc1C(=O)N2C [15 (LRRK2-IN-1)]	100	95	100
CCOc1cc(C(=O)N2CCC(N3CCN(C)CC3)CC2)ccc1Nc1ncc2c(n1)N(C1CCCC1)c1ccccc1C(=O)N2C [Compound 26]	100	100	100
COc1cc(C(=O)N2CCC(N3CCN(C)CC3)CC2)ccc1Nc1ncc2c(n1)N1CCc3cccc(c31)C(=O)N2C [Compound 24]		85	70
COc1cc(C(=O)N2CCC(N3CCN(C)CC3)CC2)ccc1Nc1ncc2c(n1)N(C1CCCC1)c1ccccc1C(=O)N2C [Compound 25, 11-cyclopentyl-2-((2-methoxy-4-(4-(4-methylpiperazin-1-yl)piperidine-1-carbonyl)phenyl)amino)-5-methyl-5H-benzo[e]pyrimido[5,4-b][1,4]diazepin-6(11H)-one]	96	82	100
